Assay results reported in US10874675B2, “Pteridine dione monocarboxylate transporter inhibitors” (The Scripps Research Institute, priority 2015, dated 2020).

System: Raji (Burkitt's) lymphoma cells
Assay: MTT assay for 4-day viability of Raji (Burkitt's) lymphoma cells
Assay type: cell-based
Details: Homo sapiens, 96 h, Raji cells (highly express MCT1), estimated values, read-out: approximate potency (EC50 nM)
Description: Specific Examples of compounds of the invention, with estimated EC50 values determined using an MTT assay for 4-day viability of Raji (Burkitt's) lymphoma cells, a cell line known to highly express MCT1 and to be sensitive to small molecule MCT inhibitors,^4 are shown in Table 3. Assay protocols follow those described in the literature.^4 Other assays that are not described here but that are standard in the field, such as an assay for competitive inhibition of transport of radiolabeled lactic acid, an MCT substrate, may also be useful in establishing mechanism of action of these compounds.

Row | SMILES | EC50
1 | CC(C)Cn1c(=O)n(C)c(=O)c2nc(CCCCCO)c(COc3ccccc3C(F)(F)F)nc21 [Example 7, 6-(5-hydroxypentyl)-1-isobutyl-3-methyl-7-((2-(trifluoromethyl)phenoxy)methyl)pteridine-2,4(1H,3H)-dione] | < 50 nM
2 | CC(C)Cn1c(=O)n(C)c(=O)c2nc(CCCCCO)c(COc3ccc([N+](=O)[O-])c4ccccc34)nc21 [Example 8, 6-(5-hydroxypentyl)-1-isobutyl-3-methyl-7-(((4-nitronaphthalen-1-yl)oxy)methyl)pteridine-2,4(1H,3H)-dione] | 300 nM
3 | CC(C)Cn1c(=O)n(C)c(=O)c2nc(CCCCCO)c(COc3ccc(N)c4ccccc34)nc21 [Example 9, 7-(((4-aminonaphthalen-1-yl)oxy)methyl)-6-(5-hydroxypentyl)-1-isobutyl-3-methylpteridine-2,4(1H,3H)-dione] | < 50 nM
4 | CC(C)Cn1c(=O)n(C)c(=O)c2nc(CCCCCO)c(COc3ccc4ccccc4c3)nc21 [Example 10] | < 50 nM
5 | CC(C)Cn1c(=O)n(C)c(=O)c2nc(CCCCCO)c(COc3ccccc3Cl)nc21 [Example 13, 7-((2-chlorophenoxy)methyl)-6-(5-hydroxypentyl)-1-isobutyl-3-methylpteridine-2,4(1H,3H)-dione] | < 50 nM
6 | CC(C)Cn1c(=O)n(C)c(=O)c2nc(CCCCCO)c(COc3ccc(-c4ccccc4)cc3)nc21 [Example 14, 7-(([1,1′-biphenyl]-4-yloxy)methyl)-6-(5-hydroxypentyl)-1-isobutyl-3-methylpteridine-2,4(1H,3H)-dione] | ≤ 100 nM
7 | CC(C)Cn1c(=O)n(C)c(=O)c2nc(CCCCCO)c(COc3ccccc3)nc21 [Example 15, 6-(5-hydroxypentyl)-1-isobutyl-3-methyl-7-(phenoxymethyl)pteridine-2,4(1H,3H)-dione] | ≤ 100 nM
8 | CC(C)Cn1c(=O)n(C)c(=O)c2nc(CCCCCO)c(COc3ccc4ncccc4c3)nc21 [Example 18, 6-(5-hydroxypentyl)-1-isobutyl-3-methyl-7-((quinolin-6-yloxy)methyl)pteridine-2,4(1H,3H)-dione] | ≤ 100 nM
9 | CC(C)Cn1c(=O)n(C)c(=O)c2nc(CCCCCO)c(COc3ccc(Cl)cc3Br)nc21 [Example 21, 7-((2-bromo-4-chlorophenoxy)methyl)-6-(5-hydroxypentyl)-1-isobutyl-3-methylpteridine-2,4(1H,3H)-dione] | ≤ 250 nM
10 | CC(C)Cn1c(=O)n(C)c(=O)c2nc(CCCCCO)c(COc3ccccc3-c3ccccc3)nc21 [Example 23, 7-(([1,1′-biphenyl]-2-yloxy)methyl)-6-(5-hydroxypentyl)-1-isobutyl-3-methylpteridine-2,4(1H,3H)-dione] | ≤ 250 nM
11 | CC(C)Cn1c(=O)n(C)c(=O)c2nc(CCCCCO)c(COc3cc(F)ccc3Br)nc21 [Example 24, 7-((2-bromo-5-fluorophenoxy)methyl)-6-(5-hydroxypentyl)-1-isobutyl-3-methylpteridine-2,4(1H,3H)-dione] | ≤ 250 nM
12 | CC(C)Cn1c(=O)n(C)c(=O)c2nc(CCCCCO)c(COc3cccc4cccnc34)nc21 [Example 26, 6-(5-hydroxypentyl)-1-isobutyl-3-methyl-7-((quinolin-8-yloxy)methyl)pteridine-2,4(1H,3H)-dione] | ≤ 500 nM
13 | CC(C)Cn1c(=O)n(C)c(=O)c2nc(CCCCCO)c(COc3cc4ccccc4cn3)nc21 [Example 27, 6-(5-hydroxypentyl)-1-isobutyl-7-((isoquinolin-3-yloxy)methyl)-3-methylpteridine-2,4(1H,3H)-dione] | ≤ 500 nM
14 | CC(C)Cn1c(=O)n(C)c(=O)c2nc(CCCCCO)c(COc3ccncc3)nc21 [Example 28, 6-(5-hydroxypentyl)-1-isobutyl-3-methyl-7-((pyridin-4-yloxy)methyl)pteridine-2,4(1H,3H)-dione] | ≤ 1000 nM
15 | CC(C)Cn1c(=O)n(C)c(=O)c2nc(CCCCCO)c(COc3cccc([N+](=O)[O-])c3)nc21 [Example 32, 6-(5-hydroxypentyl)-1-isobutyl-3-methyl-7-((3-nitrophenoxy)methyl)pteridine-2,4(1H,3H)-dione] | ≤ 1000 nM

Further lines, results first:

Row | EC50 | SMILES
16 | < 50 nM | CC(C)Cn1c(=O)n(C)c(=O)c2nc(CCCCCO)c(COc3cccc4ccccc34)nc21 [Example 2, 6-(5-hydroxypentyl)-1-isobutyl-3-methyl-7-((naphthalen-1-yloxy)methyl)pteridine-2,4(1H,3H)-dione]
17 | < 50 nM | CC(C)Cn1c(=O)n(C)c(=O)c2nc(CCCCCO)c(COc3cncc4ccccc34)nc21 [Example 5]
18 | < 50 nM | CC(C)Cn1c(=O)n(C)c(=O)c2nc(CCCCCO)c(COc3cccc4[nH]ccc34)nc21 [Example 6, 7-(((1H-indol-4-yl)oxy)methyl)-6-(5-hydroxypentyl)-1-isobutyl-3-methylpteridine-2,4(1H,3H)-dione]
19 | < 50 nM | CC(C)Cn1c(=O)n(C)c(=O)c2nc(CCCCCO)c(COc3ccccc3Br)nc21 [Example 11, 7-((2-bromophenoxy)methyl)-6-(5-hydroxypentyl)-1-isobutyl-3-methylpteridine-2,4(1H,3H)-dione]
20 | < 50 nM | CC(C)Cn1c(=O)n(C)c(=O)c2nc(CCCCCO)c(COc3ccnc4ccccc34)nc21 [Example 12, 6-(5-hydroxypentyl)-1-isobutyl-3-methyl-7-((quinolin-4-yloxy)methyl)pteridine-2,4(1H,3H)-dione]
21 | ≤ 100 nM | CC(C)Cn1c(=O)n(C)c(=O)c2nc(CCCCCO)c(COc3cccc(C(F)(F)F)c3)nc21 [Example 16, 6-(5-hydroxypentyl)-1-isobutyl-3-methyl-7-((3-(trifluoromethyl)phenoxy)methyl)pteridine-2,4(1H,3H)-dione]
22 | ≤ 100 nM | CC(C)Cn1c(=O)n(C)c(=O)c2nc(CCCCCO)c(COc3ccccc3F)nc21 [Example 17, 7-((2-fluorophenoxy)methyl)-6-(5-hydroxypentyl)-1-isobutyl-3-methylpteridine-2,4(1H,3H)-dione]
23 | ≤ 250 nM | CC(C)Cn1c(=O)n(C)c(=O)c2nc(CCCCCO)c(COc3ccc(Br)cc3Br)nc21 [Example 19, 7-((2,4-dibromophenoxy)methyl)-6-(5-hydroxypentyl)-1-isobutyl-3-methylpteridine-2,4(1H,3H)-dione]
24 | ≤ 250 nM | CC(C)Cn1c(=O)n(C)c(=O)c2nc(CCCCCO)c(COc3ccc4cccnc4c3)nc21 [Example 20, 6-(5-hydroxypentyl)-1-isobutyl-3-methyl-7-((quinolin-7-yloxy)methyl)pteridine-2,4(1H,3H)-dione]
25 | ≤ 250 nM | CC(C)Cn1c(=O)n(C)c(=O)c2nc(CCCCCO)c(COc3ccc(C(F)(F)F)cc3)nc21 [Example 22, 6-(5-hydroxypentyl)-1-isobutyl-3-methyl-7-((4-(trifluoromethyl)phenoxy)methyl)pteridine-2,4(1H,3H)-dione]
26 | ≤ 250 nM | CC(C)Cn1c(=O)n(C)c(=O)c2nc(CCCCCO)c(COc3cccc4ccncc34)nc21 [Example 25, 6-(5-hydroxypentyl)-1-isobutyl-7-((isoquinolin-8-yloxy)methyl)-3-methylpteridine-2,4(1H,3H)-dione]
27 | ≤ 1000 nM | CC(C)Cn1c(=O)n(C)c(=O)c2nc(CCCCCO)c(COc3c(Br)cc(Br)c4cnccc34)nc21 [Example 29, 7-(((6,8-dibromoisoquinolin-5-yl)oxy)methyl)-6-(5-hydroxypentyl)-1-isobutyl-3-methylpteridine-2,4(1H,3H)-dione]
28 | ≤ 1000 nM | CC(C)Cn1c(=O)n(C)c(=O)c2nc(CCCCCO)c(COc3cccc4nccnc34)nc21 [Example 30, 6-(5-hydroxypentyl)-1-isobutyl-3-methyl-7-((quinoxalin-5-yloxy)methyl)pteridine-2,4(1H,3H)-dione]
29 | ≤ 1000 nM | CC(C)Cn1c(=O)n(C)c(=O)c2nc(CCCCCO)c(COc3cccnc3)nc21 [Example 31, 6-(5-hydroxypentyl)-1-isobutyl-3-methyl-7-((pyridin-3-yloxy)methyl)pteridine-2,4(1H,3H)-dione]
30 | ≤ 100 nM | CC(C)Cn1c(=O)n(C)c(=O)c2nc(CCCCCO)c(COc3cccc(N)c3)nc21 [Example 33, 7-((3-aminophenoxy)methyl)-6-(5-hydroxypentyl)-1-isobutyl-3-methylpteridine-2,4(1H,3H)-dione]
31 | ≥ 2000 nM | CC(C)Cn1c(=O)n(C)c(=O)c2nc(CCCCCO)c(COc3ccccc3C#N)nc21 [Example 34, 2-((6-(5-hydroxypentyl)-1-isobutyl-3-methyl-2,4-dioxo-1,2,3,4-tetrahydropteridin-7-yl)methoxy)benzonitrile]
32 | ≤ 100 nM | CC(C)Cn1c(=O)n(C)c(=O)c2nc(CCc3ccccc3CO)c(COc3cccc4ccccc34)nc21 [Example 35, 6-(2-(hydroxymethyl)phenethyl)-1-isobutyl-3-methyl-7-((naphthalen-1-yloxy)methyl)pteridine-2,4(1H,3H)-dione]
